Key:
[1] = target: Ephrin type-A receptor 1 (Homo sapiens) (UniProt P21709); assay: EphA1(h) Millipore kinase panel; conditions: Compound concentration 1.0 uM
[2] = target: Mitogen-activated protein kinase kinase kinase 3 (Homo sapiens) (UniProt Q99759); assay: MEKK3(h) Millipore kinase panel; conditions: Compound concentration 1.0 uM
[3] = target: Phosphatidylinositol 4-phosphate 5-kinase type-1 gamma (Homo sapiens) (UniProt O60331); assay: PIP5K1g(h) Millipore kinase panel; conditions: Compound concentration 1.0 uM
Phosphatidylinositol 4-phosphate 5-kinase type-1 gamma (Homo sapiens), sequence (O60331 whole entry): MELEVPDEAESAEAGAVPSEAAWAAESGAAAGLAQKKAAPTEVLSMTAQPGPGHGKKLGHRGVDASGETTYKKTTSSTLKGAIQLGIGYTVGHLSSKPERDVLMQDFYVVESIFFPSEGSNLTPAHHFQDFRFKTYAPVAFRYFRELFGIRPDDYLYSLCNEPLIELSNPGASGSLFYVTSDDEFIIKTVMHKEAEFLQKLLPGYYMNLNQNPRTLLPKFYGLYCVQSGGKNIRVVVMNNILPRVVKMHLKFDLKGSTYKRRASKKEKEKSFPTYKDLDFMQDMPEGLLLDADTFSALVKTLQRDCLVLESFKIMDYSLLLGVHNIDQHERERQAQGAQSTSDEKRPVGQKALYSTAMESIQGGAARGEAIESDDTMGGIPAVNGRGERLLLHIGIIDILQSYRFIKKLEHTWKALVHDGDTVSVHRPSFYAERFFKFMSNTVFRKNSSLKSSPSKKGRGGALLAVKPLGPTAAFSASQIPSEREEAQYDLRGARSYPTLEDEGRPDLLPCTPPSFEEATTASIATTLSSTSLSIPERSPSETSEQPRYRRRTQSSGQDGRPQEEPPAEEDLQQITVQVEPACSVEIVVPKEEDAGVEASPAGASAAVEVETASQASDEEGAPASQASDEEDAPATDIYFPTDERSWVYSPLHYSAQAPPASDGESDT

[4] = target: Protein kinase C epsilon type (Homo sapiens) (UniProt Q02156); assay: PKCepsilon(h) Millipore kinase panel; conditions: Compound concentration 1.0 uM
Protein kinase C epsilon type (Homo sapiens), sequence (Q02156 whole entry): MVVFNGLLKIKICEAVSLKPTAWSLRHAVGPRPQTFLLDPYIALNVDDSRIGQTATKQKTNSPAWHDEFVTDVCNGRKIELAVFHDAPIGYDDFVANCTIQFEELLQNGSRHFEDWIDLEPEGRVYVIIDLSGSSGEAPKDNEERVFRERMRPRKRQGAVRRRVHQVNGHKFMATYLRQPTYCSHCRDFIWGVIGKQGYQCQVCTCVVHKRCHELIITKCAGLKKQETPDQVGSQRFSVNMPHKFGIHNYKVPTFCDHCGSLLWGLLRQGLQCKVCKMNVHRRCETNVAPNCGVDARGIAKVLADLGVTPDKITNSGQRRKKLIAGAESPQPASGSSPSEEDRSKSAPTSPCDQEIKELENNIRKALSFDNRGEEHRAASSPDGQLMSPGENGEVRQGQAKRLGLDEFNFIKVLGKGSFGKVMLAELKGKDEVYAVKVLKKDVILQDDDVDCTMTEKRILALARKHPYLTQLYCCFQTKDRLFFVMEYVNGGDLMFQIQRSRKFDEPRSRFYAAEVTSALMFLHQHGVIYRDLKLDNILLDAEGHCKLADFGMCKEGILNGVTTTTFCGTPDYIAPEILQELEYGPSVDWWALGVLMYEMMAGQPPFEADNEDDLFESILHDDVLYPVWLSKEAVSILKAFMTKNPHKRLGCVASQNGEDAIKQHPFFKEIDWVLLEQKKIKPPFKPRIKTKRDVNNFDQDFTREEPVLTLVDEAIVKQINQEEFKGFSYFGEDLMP

[5] = target: cGMP-dependent protein kinase 1 (Homo sapiens) (UniProt Q13976); assay: PKG1beta(h) Millipore kinase panel; conditions: Compound concentration 1.0 uM
cGMP-dependent protein kinase 1 (Homo sapiens), sequence (Q13976 whole entry): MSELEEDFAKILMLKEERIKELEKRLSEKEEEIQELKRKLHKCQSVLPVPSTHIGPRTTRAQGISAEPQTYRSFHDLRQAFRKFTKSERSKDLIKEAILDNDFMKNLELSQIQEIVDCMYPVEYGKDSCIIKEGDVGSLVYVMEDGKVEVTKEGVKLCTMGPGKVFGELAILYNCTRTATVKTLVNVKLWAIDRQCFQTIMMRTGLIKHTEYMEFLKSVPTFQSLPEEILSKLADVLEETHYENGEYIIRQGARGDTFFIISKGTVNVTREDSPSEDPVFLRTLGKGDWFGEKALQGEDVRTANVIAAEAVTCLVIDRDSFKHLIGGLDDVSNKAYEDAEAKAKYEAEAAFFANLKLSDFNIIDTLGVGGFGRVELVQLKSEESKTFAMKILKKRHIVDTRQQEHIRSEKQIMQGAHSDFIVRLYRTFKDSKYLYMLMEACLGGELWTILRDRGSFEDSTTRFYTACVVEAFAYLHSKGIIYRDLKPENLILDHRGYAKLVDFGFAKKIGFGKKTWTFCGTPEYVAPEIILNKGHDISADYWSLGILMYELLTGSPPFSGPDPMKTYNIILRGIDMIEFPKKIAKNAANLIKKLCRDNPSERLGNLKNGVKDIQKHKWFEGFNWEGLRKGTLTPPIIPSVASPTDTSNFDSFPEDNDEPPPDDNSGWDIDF

[6] = target: Serine/threonine-protein kinase PLK3 (Homo sapiens) (UniProt Q9H4B4); assay: Plk3(h) Millipore kinase panel; conditions: Compound concentration 1.0 uM
Serine/threonine-protein kinase PLK3 (Homo sapiens), sequence (Q9H4B4 whole entry, looked up): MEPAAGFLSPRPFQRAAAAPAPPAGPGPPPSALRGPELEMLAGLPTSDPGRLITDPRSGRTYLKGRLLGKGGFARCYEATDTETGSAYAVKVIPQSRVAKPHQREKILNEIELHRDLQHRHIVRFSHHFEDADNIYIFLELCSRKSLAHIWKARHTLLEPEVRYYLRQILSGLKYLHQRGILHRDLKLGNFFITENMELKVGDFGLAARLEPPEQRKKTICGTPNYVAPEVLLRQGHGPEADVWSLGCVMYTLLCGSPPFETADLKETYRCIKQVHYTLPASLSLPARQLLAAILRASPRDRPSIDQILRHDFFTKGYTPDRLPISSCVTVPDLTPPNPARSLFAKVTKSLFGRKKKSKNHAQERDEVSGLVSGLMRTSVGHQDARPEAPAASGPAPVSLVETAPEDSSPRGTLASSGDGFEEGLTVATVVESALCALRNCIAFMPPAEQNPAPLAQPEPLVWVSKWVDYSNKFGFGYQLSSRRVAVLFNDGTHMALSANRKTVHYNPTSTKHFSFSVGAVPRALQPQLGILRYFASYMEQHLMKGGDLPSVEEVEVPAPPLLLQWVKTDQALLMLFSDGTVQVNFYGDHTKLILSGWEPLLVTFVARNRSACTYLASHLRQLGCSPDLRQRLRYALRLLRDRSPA

[7] = target: BDNF/NT-3 growth factors receptor (Homo sapiens) (UniProt Q16620); assay: TrkB(h) Millipore kinase panel; conditions: Compound concentration 1.0 uM
[8] = target: D(1B) dopamine receptor (Homo sapiens) (UniProt P21918); conditions: Compound concentration 10.0 uM
D(1B) dopamine receptor (Homo sapiens), sequence (P21918 whole entry): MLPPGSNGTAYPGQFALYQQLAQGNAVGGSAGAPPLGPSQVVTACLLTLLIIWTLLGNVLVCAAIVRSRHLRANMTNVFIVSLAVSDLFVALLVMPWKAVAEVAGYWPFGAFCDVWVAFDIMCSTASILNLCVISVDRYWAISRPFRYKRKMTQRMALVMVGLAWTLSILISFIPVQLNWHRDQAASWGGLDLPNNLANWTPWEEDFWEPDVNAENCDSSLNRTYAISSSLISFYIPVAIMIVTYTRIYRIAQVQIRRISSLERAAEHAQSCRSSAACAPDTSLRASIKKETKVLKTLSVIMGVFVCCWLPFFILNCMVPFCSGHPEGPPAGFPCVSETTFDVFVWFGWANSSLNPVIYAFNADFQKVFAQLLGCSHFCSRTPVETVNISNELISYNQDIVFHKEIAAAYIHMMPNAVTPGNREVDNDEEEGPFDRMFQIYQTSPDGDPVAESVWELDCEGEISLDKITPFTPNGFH

Measured: inhibition

Ephrin type-A receptor 1 (Homo sapiens), sequence (P21709 whole entry): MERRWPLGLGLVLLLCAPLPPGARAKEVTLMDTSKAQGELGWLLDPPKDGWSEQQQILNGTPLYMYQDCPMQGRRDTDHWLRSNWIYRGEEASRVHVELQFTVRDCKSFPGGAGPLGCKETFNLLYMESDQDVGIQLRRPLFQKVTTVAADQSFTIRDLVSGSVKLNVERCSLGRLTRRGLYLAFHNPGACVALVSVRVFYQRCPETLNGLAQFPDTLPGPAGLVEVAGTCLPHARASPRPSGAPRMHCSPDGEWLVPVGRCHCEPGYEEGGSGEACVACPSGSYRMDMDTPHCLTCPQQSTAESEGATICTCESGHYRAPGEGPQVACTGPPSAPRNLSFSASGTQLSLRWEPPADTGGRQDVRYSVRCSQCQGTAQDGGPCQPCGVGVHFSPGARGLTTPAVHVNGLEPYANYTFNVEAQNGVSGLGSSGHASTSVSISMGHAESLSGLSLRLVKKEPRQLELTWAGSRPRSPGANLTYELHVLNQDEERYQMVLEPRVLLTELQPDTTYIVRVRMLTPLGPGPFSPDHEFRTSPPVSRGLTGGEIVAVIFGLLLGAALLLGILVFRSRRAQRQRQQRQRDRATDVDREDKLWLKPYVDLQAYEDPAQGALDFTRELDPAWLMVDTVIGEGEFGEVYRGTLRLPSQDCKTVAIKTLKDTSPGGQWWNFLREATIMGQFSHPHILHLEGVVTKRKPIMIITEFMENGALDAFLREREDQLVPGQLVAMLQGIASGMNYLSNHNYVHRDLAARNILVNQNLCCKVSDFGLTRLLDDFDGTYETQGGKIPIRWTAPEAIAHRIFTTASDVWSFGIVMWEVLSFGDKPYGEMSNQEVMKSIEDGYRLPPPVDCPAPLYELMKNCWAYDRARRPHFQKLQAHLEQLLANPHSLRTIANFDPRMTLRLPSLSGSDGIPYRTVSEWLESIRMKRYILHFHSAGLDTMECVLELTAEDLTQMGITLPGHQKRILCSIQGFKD
Mitogen-activated protein kinase kinase kinase 3 (Homo sapiens), sequence (Q99759 whole entry): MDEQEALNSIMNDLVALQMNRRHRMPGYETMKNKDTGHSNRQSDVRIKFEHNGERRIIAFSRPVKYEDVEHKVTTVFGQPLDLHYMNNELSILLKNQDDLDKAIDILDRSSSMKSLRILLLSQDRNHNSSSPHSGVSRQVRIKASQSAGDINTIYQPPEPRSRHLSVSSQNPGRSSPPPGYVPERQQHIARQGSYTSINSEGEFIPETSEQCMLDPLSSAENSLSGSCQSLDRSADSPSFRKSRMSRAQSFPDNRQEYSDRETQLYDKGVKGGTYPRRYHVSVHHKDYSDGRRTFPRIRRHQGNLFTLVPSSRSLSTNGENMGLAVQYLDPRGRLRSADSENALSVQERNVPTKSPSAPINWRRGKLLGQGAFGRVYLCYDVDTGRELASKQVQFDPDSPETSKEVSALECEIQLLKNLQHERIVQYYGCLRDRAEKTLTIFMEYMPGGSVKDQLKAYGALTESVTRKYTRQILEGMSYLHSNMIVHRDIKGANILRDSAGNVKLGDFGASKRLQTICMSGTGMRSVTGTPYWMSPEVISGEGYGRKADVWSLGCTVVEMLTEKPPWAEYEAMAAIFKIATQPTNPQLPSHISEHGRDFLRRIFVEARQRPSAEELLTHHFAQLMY

CC[C@@H](Nc1c(C#N)c(-c2ccc(-c3cccc(C)c3F)cc2)nc2cnccc12)C(=O)O [BAY-091]
inactive: [1] 9.2% | [2] -3.58% | [3] 1.51% | [4] -4.26% | [5] 8.22% | [6] -7.76% | [7] 2.08% | [8] 15.8%
